Laboratory results as given in PubChem BioAssay AID270 (DTP/NCI, 2004).
“And” between values parts separate entries of the source, which are not always exact repeats. Equal entries are not always repeated. Results filed as inconclusive are left out.

Test system: BDF1 mice, s.c. Lewis lung carcinoma, T/C %
Test: NCI In Vivo Anticancer Drug Screen. Data for tumor model Lewis Lung Carcinoma (subcutaneous) in B6D2F1 (BDF1) mice
Outline: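 Transplanted tumors grown in mice; compound vs vehicle dosing; endpoint survival or tumor size; ratio T/C.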

[1] = endpoint: median survival time, dose: 12.5 mg/kg/injection, schedule: Q01DX009 (ip), vehicle: saline, higher = longer survival
[2] = endpoint: median survival time, dose: 6.25 mg/kg/injection, schedule: Q01DX009 (ip), vehicle: saline, higher = longer survival

SMILES: CN(Cc1cnc2nc(N)nc(N)c2n1)c1c(Cl)cc(C(=O)NC(CCC(=O)O)C(=O)O)cc1Cl (centres undefined)
- T/C (endpoint: median survival time, dose: 90.0 mg/kg/injection, schedule: Q01DX009 (ip), vehicle: sodium bicarbonate, higher = longer survival): 110 % of control
- T/C (endpoint: median survival time, dose: 560.0 mg/kg/injection, schedule: Q04DX003 (ip), vehicle: sodium bicarbonate, higher = longer survival): 112 % of control
- T/C (endpoint: median survival time, dose: 626.0 mg/kg/injection, schedule: Q01DX001 (ip), vehicle: sodium bicarbonate, higher = longer survival): 116 % of control
- T/C (endpoint: median survival time, dose: 840.0 mg/kg/injection, schedule: Q04DX003 (ip), vehicle: sodium bicarbonate, higher = longer survival): 108 % of control
- T/C (endpoint: median survival time, dose: 933.0 mg/kg/injection, schedule: Q01DX001 (ip), vehicle: sodium bicarbonate, higher = longer survival): 92 % of control
- T/C (endpoint: median survival time, dose: 1400.0 mg/kg/injection, schedule: Q01DX001 (ip), vehicle: sodium bicarbonate, higher = longer survival): 100 % of control

SMILES: O=C1C=Cc2ccc(O)cc2C1=O
- T/C (endpoint: mean tumor weight, dose: 0.57 mg/kg/injection, schedule: Q01DX011 (ip), vehicle: saline, higher = larger tumour): 104 % of control
- T/C (endpoint: mean tumor weight, dose: 0.86 mg/kg/injection, schedule: Q01DX011 (ip), vehicle: saline, higher = larger tumour): 81 % of control
- T/C (endpoint: mean tumor weight, dose: 1.3 mg/kg/injection, schedule: Q01DX011 (ip), vehicle: saline, higher = larger tumour): 59 % of control
- T/C (endpoint: mean tumor weight, dose: 2.0 mg/kg/injection, schedule: Q01DX011 (ip), vehicle: saline, higher = larger tumour): 60 % of control

SMILES: [Cl][Ni+2][Cl].[NH-]CCN1CC1
- T/C (endpoint: median survival time, dose: 1.56 mg/kg/injection, schedule: Q01DX009 (ip), vehicle: saline, higher = longer survival): 103 % of control and 115 % of control
- T/C [1]: 100 % of control

SMILES: CC(C)C1=CCC2C(=C1)CCC1C(C)(C(=O)O)CCCC21C (centres undefined) (tested in a mixture with another compound)
- T/C (endpoint: mean tumor weight, dose: 50.0 mg/kg/injection, schedule: Q01DX011 (ip), vehicle: saline, higher = larger tumour): 72 % of control
- T/C (endpoint: mean tumor weight, dose: 100.0 mg/kg/injection, schedule: Q01DX011 (ip), vehicle: saline, higher = larger tumour): 75 % of control
- T/C (endpoint: mean tumor weight, dose: 200.0 mg/kg/injection, schedule: Q01DX011 (ip), vehicle: saline, higher = larger tumour): 57 % of control
- T/C (endpoint: mean tumor weight, dose: 400.0 mg/kg/injection, schedule: Q01DX011 (ip), vehicle: saline, higher = larger tumour): 45 % of control

SMILES: CS(=O)(=O)OCCCNCCCOS(C)(=O)=O
- T/C (endpoint: mean tumor weight, dose: 10.0 mg/kg/injection, schedule: Q01DX011 (ip), vehicle: saline, higher = larger tumour): 63 % of control
- T/C (endpoint: mean tumor weight, dose: 20.0 mg/kg/injection, schedule: Q01DX011 (ip), vehicle: saline, higher = larger tumour): 70 % of control
- T/C (endpoint: mean tumor weight, dose: 40.0 mg/kg/injection, schedule: Q01DX011 (ip), vehicle: saline, higher = larger tumour): 42 % of control
- T/C (endpoint: median survival time, dose: 10.0 mg/kg/injection, schedule: Q01DX009 (ip), vehicle: saline, higher = longer survival): 105 % of control
- T/C (endpoint: median survival time, dose: 20.0 mg/kg/injection, schedule: Q01DX009 (ip), vehicle: saline, higher = longer survival): 101 % of control

SMILES: C=C[C@]1(C)C=C2CC[C@@H]3[C@](C)(CCC[C@@]3(C)C(=O)O)[C@H]2CC1
- T/C (endpoint: mean tumor weight, dose: 7.8 mg/kg/injection, schedule: Q01DX011 (ip), vehicle: saline, higher = larger tumour): 73 % of control
- T/C (endpoint: mean tumor weight, dose: 15.6 mg/kg/injection, schedule: Q01DX011 (ip), vehicle: saline, higher = larger tumour): 55 % of control
- T/C (endpoint: mean tumor weight, dose: 31.3 mg/kg/injection, schedule: Q01DX011 (ip), vehicle: saline, higher = larger tumour): 43 % of control
- T/C (endpoint: mean tumor weight, dose: 62.5 mg/kg/injection, schedule: Q01DX011 (ip), vehicle: saline, higher = larger tumour): 98 % of control and 102 % of control
- T/C (endpoint: mean tumor weight, dose: 125.0 mg/kg/injection, schedule: Q01DX011 (ip), vehicle: saline, higher = larger tumour): 102 % of control
- T/C (endpoint: mean tumor weight, dose: 250.0 mg/kg/injection, schedule: Q01DX011 (ip), vehicle: saline, higher = larger tumour): 82 % of control

SMILES: C1CC[N-]CC1.C1CC[N-]CC1.C1CC[N-]CC1.[Cl][Rh]([Cl])[Cl]
- T/C (endpoint: median survival time, dose: 4.0 mg/kg/injection, schedule: Q01DX009 (ip), vehicle: saline, higher = longer survival): 96 % of control
- T/C (endpoint: median survival time, dose: 8.0 mg/kg/injection, schedule: Q01DX009 (ip), vehicle: saline, higher = longer survival): 93 % of control
- T/C (endpoint: median survival time, dose: 16.0 mg/kg/injection, schedule: Q01DX009 (ip), vehicle: saline, higher = longer survival): 103 % of control
- T/C (endpoint: median survival time, dose: 32.0 mg/kg/injection, schedule: Q01DX009 (ip), vehicle: saline, higher = longer survival): 98 % of control
- T/C (endpoint: median survival time, dose: 64.0 mg/kg/injection, schedule: Q01DX009 (ip), vehicle: saline, higher = longer survival): 92 % of control

SMILES: CCCCCC(CN(C)C)C(O)/C=C/c1ccccc1Cl (centres undefined)
- T/C (endpoint: median survival time, dose: 3.12 mg/kg/injection, schedule: Q01DX009 (ip), vehicle: saline, higher = longer survival): 99 % of control
- T/C [2]: 95 % of control
- T/C [1]: 92 % of control
- T/C (endpoint: median survival time, dose: 25.0 mg/kg/injection, schedule: Q01DX009 (ip), vehicle: saline, higher = longer survival): 99 % of control
- T/C (endpoint: median survival time, dose: 50.0 mg/kg/injection, schedule: Q01DX009 (ip), vehicle: saline, higher = longer survival): 108 % of control

SMILES: NS(=O)(=O)c1ncnc2nc[nH]c12
- T/C (endpoint: mean tumor weight, dose: 5.0 mg/kg/injection, schedule: Q01DX011 (ip), vehicle: methylcellulose (MC), higher = larger tumour): 88 % of control
- T/C (endpoint: mean tumor weight, dose: 25.0 mg/kg/injection, schedule: Q01DX011 (ip), vehicle: methylcellulose (MC), higher = larger tumour): 87 % of control

SMILES: C[C@]12CCC(=O)C=C1CC[C@@H]1[C@@H]2C(=O)C[C@]2(C)C3=CC(=O)O[C@H]3C[C@@H]12
- T/C (endpoint: median survival time, dose: 3.13 mg/kg/injection, schedule: Q01DX009 (ip), vehicle: saline, higher = longer survival): 106 % of control
- T/C [2]: 109 % of control
- T/C (endpoint: median survival time, dose: 12.5 mg/kg/injection, schedule: Q01DX009 (ip), vehicle: saline with Tween-80, higher = longer survival): 116 % of control
- T/C [1]: 100 % of control
- T/C (endpoint: median survival time, dose: 25.0 mg/kg/injection, schedule: Q01DX009 (ip), vehicle: saline with Tween-80, higher = longer survival): 91 % of control
